The target of one experiment is T1, TYK2-JH2 domain (Homo sapiens, UniProt P29597).
T1 construct: JAK1-JH2 domain or TYK2-JH2 domain enzyme in assay buffer
As to the kind of experiment: Binding activity test for JH2 domain of TYK2 (Tb-antibody/tracer FRET). The procedure, abridged:
(§1)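 Competitive TR-FRET binding: compounds dispensed as an 11-point 3-fold dilution series, then Tb-labelled antibody and tracer added to the JH2 protein system. Incubated at 25°C, then overnight at 4°C; FRET signal read on Envision and IC50 (nM) derived.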

Another experiment concerns the target T2, JAK1-JH2 domain (Homo sapiens, UniProt P23458).
T2 construct: JAK1-JH2 domain or TYK2-JH2 domain enzyme in assay buffer
In words: Binding activity test for JH2 domain of JAK1 (Tb-antibody/tracer FRET). To be noted: JH2 domain enzyme; 60 min at 25°C, then 4°C overnight; read-out: JAK1 JH2 Binding IC50. The procedure, abridged: as §1

Experiment [1] has as its system Ba/F3-FL-TYK2-P760L cells. As to the kind of experiment: Anti-proliferative assay in engineered Ba/F3 cells (Cell-Titer Glo, 72 h). Type of experiment: cell-based. To be noted: Mus musculus, BaF3, 72 h, 72 h compound treatment, concentration that causes 50% growth inhibition, read-out: Baf3-FL-T2P760L. The procedure, abridged: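 Ba/F3 cells carrying Tel-dimerization/JAK kinase fusion, IL-3-independent, in RPMI-1640 + 10% FBS; 9-point 3-fold dilutions from 20 µM (0.1% DMSO) added after 24 h, 72 h at 37 °C. Viability by Cell-Titer Glo ATP luminescence; % inhibition versus DMSO cells, blank-corrected, giving IC50.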

Experiment [2] concerns IFNa pSTAT1. As to the kind of experiment: Phosphorylation of STAT1 inhibition in HMC3 cells by Jess. Conditions: Homo sapiens; HMC3 microglia cells, 50ng/mL hINFα 1 hour, Jess western; read-out: Jess_HMC3 IC50 (IFNa pSTAT1). Type of experiment: cell-based. As to the method:
Seeding HMC3 cells into 12-well plate and incubate overnight. Pre-stimulation with recombinant human IFNα (Sino biological, H08Y), treat cells with compound with different concentration for 1hr. After compound treatment, stimulate HMC3 cells with 50ng/mL hINFα for another 1 hour (for CCF-STTG1 cells IFNα induction time is 30 mins). And then wash cells with DPBS once gently and lyse cells with pre-cooled RIPA buffer (Sigma, R0278-500ML) for 30min on ice to harvest cells. Centrifuge cell lysate for 20 mins at 12000rpm with freezer centrifuge (Thermo Scientific, Heraeus Fresco 21) to extract protein. Prepare samples with Jess Simple Wes kit (SM-WO04) and then run western blot on Jess simple western system (Protein simple, JS-4631). Collect data and analyzed with GraphPad Prism.

The test system of experiment [3] is IFNa pSTAT1. In words: Phosphorylation of STAT1 inhibition in HMC3 cells with HTRF assay. Type of experiment: cell-based. To be noted: Homo sapiens, HMC3 microglia cells, 50ng/mL hINFα 1 hour, read-out: HTRF_HMC3 IC 50 (IFNa pSTAT1). As to the method: Seeding HMC3 cells into 96-well plate and incubate overnight. Pre-stimulation with recombinant human IFNα (Sino biological, H08Y), treat cells with compound with different concentration for 1hr. After compound treatment, stimulate cells with 50ng/mL hINFα for another 1 hour (for CCF-STTG1 cells IFNα induction time is 30 mins). After compound treatment and cytokine stimulation, dump old medium and lyse cells with supplemented lysis buffer provided by the HTRF kit (Revvity, 63ADK026PEG) for 30 min at room temperature under shaking. After homogenization by pipetting up and down, transfer 16 µL of cell lysate from the 96-well cell-culture plate to a small volume white 384-well plate, and then add 4 µL of pre-mixed two ready-to-use antibody working solution into each wells. Cover the plate with a plate sealer and incubate it overnight at room temperature. Read the fluorescence emission at two different wavelengths (665nm and 620nm) on microplate reader (Molecular Device, SpectraMax i3X). Collect data and analyzed with GraphPad Prism.

Where only a bound is given, the exact number is not on record here.

T1 sequence (P29597 589-875 limits assumed): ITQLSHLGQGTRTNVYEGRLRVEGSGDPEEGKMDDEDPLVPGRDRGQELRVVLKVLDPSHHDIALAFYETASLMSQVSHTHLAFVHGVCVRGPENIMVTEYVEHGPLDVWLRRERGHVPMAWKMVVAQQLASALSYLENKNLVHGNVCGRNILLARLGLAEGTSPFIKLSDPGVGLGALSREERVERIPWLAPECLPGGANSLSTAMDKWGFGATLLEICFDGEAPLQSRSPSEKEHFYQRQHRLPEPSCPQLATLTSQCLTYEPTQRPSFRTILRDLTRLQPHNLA
T2 sequence (P23458 583-855 limits assumed): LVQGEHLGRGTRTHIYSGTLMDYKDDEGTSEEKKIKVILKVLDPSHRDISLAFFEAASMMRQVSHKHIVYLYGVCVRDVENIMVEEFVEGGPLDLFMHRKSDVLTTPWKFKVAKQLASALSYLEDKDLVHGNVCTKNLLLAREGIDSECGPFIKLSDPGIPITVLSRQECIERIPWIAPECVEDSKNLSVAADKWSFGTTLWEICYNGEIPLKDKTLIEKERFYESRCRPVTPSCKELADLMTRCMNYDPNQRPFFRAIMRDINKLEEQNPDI

In the case of `COC(=O)c1cnc(NC(=O)C2CC2)cc1Nc1nn(C)c2ccc(C(OC)C(F)F)c(OC)c12` (stereo not drawn) [Example 68, Methyl 6-(cyclopropanecarboxamido)-4-((5-(2,2-difluoro-1-methoxyethyl)-4-methoxy-1-methyl-1H-indazol-3-yl)amino)nicotinate], the IC50 on TYK2-JH2 domain (JH2 domain enzyme, 60 min at 25°C, then 4°C overnight, read-out: TYK2 JH2 Binding IC50) is 0.14 nM; on JAK1-JH2 domain it was 16.3 nM; in experiment [1] it was 3.6 nM; in the experiment with IFNa pSTAT1 [2], 3.17 nM; with IFNa pSTAT1 [3] it was below 0.061 nM. The JAK1/TYK2 selectivity at TYK2-JH2 domain (ratio of JAK1 JH2 to TYK2 JH2 binding IC50) is given as 116.36.

Source of the values: EP4813463A2, “TYK2 INHIBITORS AND COMPOSITIONS AND METHODS THEREOF” (Lynk Pharmaceuticals Co. Ltd., priority 2023, dated 2024).
